Assay results published in patent US20230190762A1, “STABLE VARENICLINE DOSAGE FORMS” (Handa Pharma, Inc., priority 2021, published 2023).
Values belong to the substance of their own block, whether it stands above or below them.

Key:
[1] = Particle size, Mastersizer 3000 laser particle size analyzer, wet method; type: physicochemical
Description: The particle size of five representative lots of varenicline tartrate was determined and the results are as follows:
Mastersizer 3000 Laser Particle Size Analyzer and Electronic Analytical Balance
3.3.1 Preparation N-hexane solution of 0.1% span 85.
3.3.2 Weigh about 0.04 g sample and add into 5 mL dispersant, and ultrasonic for 10 min.
3.4.1 Cleaning instrument.
3.4.2 The above parameters are set,
3.4.3 Reconfirm the inspection parameters.
3.4.4 Background checks are required.
3.4.5 Samples tested and each for 3 times.

[2] = Nitrosamine test for API and finish product, UPLC-MS/MS; type: physicochemical; settings: for API nitrosamine level (Nitro-P08) (based on varenicline base): initial level of API lot
Description: 4. Nitrosamine Test Method for API and Finish Product
UPLC-MS/MS, Thermo scientific; Orbitrap Exploris 120
4.2. Solution Preparations
4.2.2 Mobile phase A: Formic acid: Purified Water (0.1:100), transferred 500 mL purified water to 500 mL analysis bottle, then added 500 μL formic acid and well mixed. Ultrasonic Degassing for 5 min.
4.2.3 Mobile phase B: Formic acid: Methanol (0.1:100), transferred 500 mL methanol to 500 mL analysis bottle, then added 500 μL formic acid and well mixed. Ultrasonic degassing for 5 min.
4.2.4 Reference stock solution I: Weight about 2.0 mg of 8-nitroso-7,8,9,10-tetrahydro-6H-6,10-methanoazepino[4,5-g]quinoxaline (Nitro-P08) into a 100 mL volumetric flask. Dissolve with methanol and dilute to volume and well mixed (about 20 μg/mL of Nitro-P08).
4.2.5 Reference stock solution II: Accurately pipet 5.0 mL of reference stock solution I into a 200-mL volumetric flask, dilute with methanol to volume and well mixed (about 500 ng/mL of Nitro-P08).
4.2.6 Reference stock solution III: Accurately pipet 5.0 mL of reference stock solution II into a 50-mL volumetric flask, dilute with methanol to volume and well mixed (about 50 ng/mL of Nitro-P08).
4.2.7 Reference solution: Accurately pipet 1.0 mL of reference stock solution III into a 50-mL volumetric flask, dilute with methanol to volume and well mixed.
Weighted about 25 mg of sample into a 50 mL volumetric flask. Diluted to volume with Diluent and well mixed. Prepared 2 duplication in parallel.
4.2.8.2 for Finish Product
Grind 10 tablets for 1 mg strength or 20 tablets for 0.5 mg strength, accurately weigh and transfer about 0.61 g of powder (equivalent to about 5 mg of Varenicline Tartrate API) into a 50 mL stoppered test tube, add 10 mL of methanol, vortex for 1 min and treat with ultrasound for 20 min. Place it still for 10 min, take an appropriate amount of solution for centrifugation (10000 rpm, 10 min), and then take the supernatant as the test solution. Prepare in duplicates. (Note: Grind the tablets and weigh right before the test sample solution preparation.)

[3] = particle size of varenicline tartrate lot, listed as 202010004
[4] = particle size of varenicline tartrate lot
[5] = particle size of varenicline tartrate lot, listed as 202012001
[6] = API lot of compatibility study, 80 mesh
[7] = particle size of varenicline tartrate lot, listed as 202012002

- Nitroso impurity [drawing 4] in bulk drug substance (API) ([2]; initial): 1.6 ppm
- Nitroso impurity [drawing 5] in bulk drug substance (API) ([2]; initial): <LOQ (0.0289 ppm)
Substance: Varenicline Tartrate [Lot 202101002]

- API nitrosamine level (Nitro-P08) (based on varenicline base) [2]: 7.35 ppm
Substance: Varenicline Tartrate [Lot 6A]

- D10 [1, 6]: 1.1 µm
- D50 [1, 6]: 3.3 µm
- D90 [1, 6]: 11 µm
Substance: Varenicline Tartrate [Lot 201702001]

- D10 [1, 4]: 0.858 μm
- D50 [1, 4]: 2.600 μm
- D90 [1, 4]: 9.660 μm
- Nitroso impurity [drawing 4] in bulk drug substance (API) ([2]; <30° C., >[…]): 7.1 ppm
- Nitroso impurity [drawing 5] in bulk drug substance (API) ([2]; <30° C., >[…]): <LOQ (0.0289 ppm)
Substance: Varenicline Tartrate [Lot 201810001]

- D10 [1, 7]: 2.269 μm
- D50 [1, 7]: 5.708 μm
- D90 [1, 7]: 11.288 μm
- API nitrosamine level (Nitro-P08) (based on varenicline base) ([2]; listed as 6B): 1.8 ppm
Substance: Varenicline Tartrate [Lot 202012002]

The remaining lines, values behind:

Substance: Varenicline Tartrate [Lot 202010004]
- D10 [1, 3]: 2.339 μm
- D50 [1, 3]: 6.354 μm
- D90 [1, 3]: 11.802 μm

Substance: Varenicline Tartrate [Lot 201811001]
- D10 [1, 4]: 0.878 μm
- D50 [1, 4]: 2.630 μm
- D90 [1, 4]: 32.700 μm
- Nitroso impurity [drawing 4] in bulk drug substance (API) ([2]; <30° C., >[…]): 18.3 ppm
- Nitroso impurity [drawing 5] in bulk drug substance (API) ([2]; <30° C., >[…]): <LOQ (0.0289 ppm)

Substance: Varenicline Tartrate [Lot 202012001]
- D10 [1, 5]: 1.547 μm
- D50 [1, 5]: 4.088 μm
- D90 [1, 5]: 8.554 μm
